Measured values from patent US10870652B2, “Compounds and methods for modulating bruton's tyrosine kinase” (CORVUS PHARMACEUTICALS, INC., priority 2016, dated 2020).

Legend:
Assay type in all cases: biochemical
ITK = biological target: T1, ITK (Homo sapiens, UniProt Q08881); test: ITK IC50 kinase inhibition assay
T1 sequence (Q08881 1-620): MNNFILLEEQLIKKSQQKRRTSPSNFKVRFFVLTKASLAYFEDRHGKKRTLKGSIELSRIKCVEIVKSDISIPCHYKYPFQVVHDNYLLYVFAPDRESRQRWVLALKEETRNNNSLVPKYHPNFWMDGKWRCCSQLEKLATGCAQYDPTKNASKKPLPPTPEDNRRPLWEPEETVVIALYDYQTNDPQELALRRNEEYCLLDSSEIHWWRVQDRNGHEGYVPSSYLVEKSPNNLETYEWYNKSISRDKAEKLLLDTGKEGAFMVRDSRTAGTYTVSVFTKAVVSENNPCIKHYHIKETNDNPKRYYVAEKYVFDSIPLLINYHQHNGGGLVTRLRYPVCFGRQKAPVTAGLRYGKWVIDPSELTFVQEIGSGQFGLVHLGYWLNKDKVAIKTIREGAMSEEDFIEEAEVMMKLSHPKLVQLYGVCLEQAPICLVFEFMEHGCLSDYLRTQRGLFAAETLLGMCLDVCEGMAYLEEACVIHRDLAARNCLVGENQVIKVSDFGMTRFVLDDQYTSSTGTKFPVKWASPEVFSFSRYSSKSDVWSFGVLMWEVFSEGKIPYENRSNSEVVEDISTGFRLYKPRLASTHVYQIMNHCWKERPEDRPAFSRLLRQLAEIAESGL

BTK = BTK (Homo sapiens, UniProt Q06187); test: BTK IC50 kinase inhibition assay
JAK3 = biological target: T2, JAK3 (Homo sapiens, UniProt P52333); test: JAK3 IC50 kinase inhibition assay
T2 sequence (P52333 1-1124): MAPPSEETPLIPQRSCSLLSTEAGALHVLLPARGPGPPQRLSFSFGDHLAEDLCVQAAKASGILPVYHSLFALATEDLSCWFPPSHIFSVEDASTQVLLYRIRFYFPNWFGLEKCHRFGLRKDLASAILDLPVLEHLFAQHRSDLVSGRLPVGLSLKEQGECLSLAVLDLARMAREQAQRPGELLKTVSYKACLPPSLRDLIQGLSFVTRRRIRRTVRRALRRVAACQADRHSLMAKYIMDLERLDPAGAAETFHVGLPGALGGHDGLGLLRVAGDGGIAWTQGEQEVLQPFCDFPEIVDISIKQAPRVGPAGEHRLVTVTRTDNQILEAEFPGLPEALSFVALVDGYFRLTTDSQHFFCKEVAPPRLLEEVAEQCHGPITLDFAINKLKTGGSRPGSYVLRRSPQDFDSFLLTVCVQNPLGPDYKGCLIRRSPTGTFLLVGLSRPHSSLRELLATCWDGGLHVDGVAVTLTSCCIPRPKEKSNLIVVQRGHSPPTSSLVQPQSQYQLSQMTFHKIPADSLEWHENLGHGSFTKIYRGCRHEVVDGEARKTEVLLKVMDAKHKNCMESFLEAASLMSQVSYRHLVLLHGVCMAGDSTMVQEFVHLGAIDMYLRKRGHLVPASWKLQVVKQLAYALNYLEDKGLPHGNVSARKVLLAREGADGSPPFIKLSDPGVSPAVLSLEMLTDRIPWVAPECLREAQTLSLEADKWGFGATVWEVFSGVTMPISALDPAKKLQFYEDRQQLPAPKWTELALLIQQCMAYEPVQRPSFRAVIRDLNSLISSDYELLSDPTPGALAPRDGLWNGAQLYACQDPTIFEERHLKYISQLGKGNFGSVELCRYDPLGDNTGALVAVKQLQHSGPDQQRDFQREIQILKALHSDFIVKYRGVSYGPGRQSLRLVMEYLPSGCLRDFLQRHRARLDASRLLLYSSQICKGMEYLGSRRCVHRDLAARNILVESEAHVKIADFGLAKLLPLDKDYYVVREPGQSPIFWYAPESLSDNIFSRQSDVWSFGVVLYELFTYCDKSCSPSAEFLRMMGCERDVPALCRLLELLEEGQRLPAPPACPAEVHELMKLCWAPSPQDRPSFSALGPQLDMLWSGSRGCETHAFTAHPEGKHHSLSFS

TXK = biological target: T3, TXK (Homo sapiens, UniProt P42681); test: TXK IC50 kinase inhibition assay
T3 sequence (P42681 1-527): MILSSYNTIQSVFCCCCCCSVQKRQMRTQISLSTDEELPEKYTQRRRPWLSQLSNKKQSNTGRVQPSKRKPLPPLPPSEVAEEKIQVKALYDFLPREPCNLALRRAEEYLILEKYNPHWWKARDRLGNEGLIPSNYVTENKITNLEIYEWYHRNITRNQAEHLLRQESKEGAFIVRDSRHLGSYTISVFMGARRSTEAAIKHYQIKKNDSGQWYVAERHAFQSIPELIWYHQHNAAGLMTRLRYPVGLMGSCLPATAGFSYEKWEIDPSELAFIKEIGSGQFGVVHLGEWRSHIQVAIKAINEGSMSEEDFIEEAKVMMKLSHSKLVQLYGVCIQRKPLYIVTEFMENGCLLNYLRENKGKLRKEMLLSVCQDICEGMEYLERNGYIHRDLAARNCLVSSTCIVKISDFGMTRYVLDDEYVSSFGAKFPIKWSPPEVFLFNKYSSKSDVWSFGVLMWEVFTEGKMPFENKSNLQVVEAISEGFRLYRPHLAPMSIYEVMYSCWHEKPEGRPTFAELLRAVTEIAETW

Sequence of BTK (Q06187 whole entry): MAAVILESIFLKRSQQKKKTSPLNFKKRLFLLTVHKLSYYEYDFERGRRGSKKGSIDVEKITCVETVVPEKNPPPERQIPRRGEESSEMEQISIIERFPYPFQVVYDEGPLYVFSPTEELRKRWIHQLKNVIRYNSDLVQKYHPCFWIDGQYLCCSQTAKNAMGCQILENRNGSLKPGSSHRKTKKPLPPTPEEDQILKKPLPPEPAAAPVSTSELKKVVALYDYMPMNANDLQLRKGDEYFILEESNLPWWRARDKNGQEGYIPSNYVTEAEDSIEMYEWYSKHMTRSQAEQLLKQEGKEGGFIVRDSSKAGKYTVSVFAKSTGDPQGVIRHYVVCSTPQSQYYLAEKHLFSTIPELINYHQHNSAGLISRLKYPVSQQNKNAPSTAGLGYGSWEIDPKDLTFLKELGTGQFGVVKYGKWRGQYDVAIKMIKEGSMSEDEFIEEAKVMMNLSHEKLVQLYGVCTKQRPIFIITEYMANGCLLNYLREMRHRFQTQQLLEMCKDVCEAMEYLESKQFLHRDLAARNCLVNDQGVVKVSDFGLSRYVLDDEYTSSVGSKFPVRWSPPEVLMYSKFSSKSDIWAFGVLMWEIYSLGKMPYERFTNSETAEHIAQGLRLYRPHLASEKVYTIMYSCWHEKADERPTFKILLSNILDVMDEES

| Compound | IC50 (ITK) [nM] | IC50 (BTK) [nM] | IC50 (JAK3) [nM] | IC50 (TXK) [nM] |
| --- | --- | --- | --- | --- |
| C=C(C)C(=O)N1CCC[C@@H](n2nc(-c3ccc(Oc4ccccc4)cc3)c3cncnc32)C1 [Compound A21, (R)-2-methyl-1-(3-(3-(4-phenoxyphenyl)-1H-pyrazolo[3,4-d]pyrimidin-1-yl)piperidin-1-yl)prop-2-en-1-one] | > 500 | > 500 | > 500 | > 500 |
| C=CC(=O)N1CCC[C@H]1Cn1nc(-c2ccc(Oc3ccccc3)cc2)c2cnccc21 [Compound A22, (S)-1-(2-((3-(4-phenoxyphenyl)-1H-pyrazolo[4,3-c]pyridin-1-yl)methyl)pyrrolidin-1-yl)prop-2-en-1-one] | > 500 | < 100 | > 500 | < 100 |
| C=CC(=O)N1CCC[C@@H](n2nc(-c3ccc(Oc4ccccc4)cc3)c3cnccc32)C1 [Compound A23, (R)-1-(3-(3-(4-phenoxyphenyl)-H-pyrazolo[4,3-c]pyridin-1-yl)piperidin-1-yl)prop-2-en-1-one] | > 500 | < 100 | > 500 | < 100 |
| C=CC(=O)N1CCC[C@@H](n2nc(-c3ccc(Oc4ccccc4)cc3F)c3cnccc32)C1 [Compound A24, (R)-1-(3-(3-(2-fluoro-4-phenoxyphenyl)-1H-pyrazolo[4,3-c]pyridin-1-yl)piperidin-1-yl)prop-2-en-1-one] | > 500 | < 100 | > 500 | < 100 |
| CN(C)C/C=C/C(=O)N1CC[C@@H](n2nc(-c3ccc(Oc4ccccc4)cc3)c3cncnc32)C1 [Compound A25] | > 500 | < 100 | > 500 | > 500 |
| C=CC(=O)N1CCC[C@@H](n2nc(-c3ccc(Oc4ccccc4)cc3)c3cncc(F)c32)C1 [Compound A26, (R)-1-(3-(7-fluoro-3-(4-phenoxyphenyl)-1H-pyrazolo[4,3-c]pyridin-1-yl)piperidin-1-yl)prop-2-en-1-one] | > 500 | < 100 | > 500 | < 100 |
| C=CC(=O)N1CCC[C@H]1Cn1nc(-c2ccc(Oc3ccccc3)cc2)c2cncc(F)c21 [Compound A27, (S)-1-(2-((7-fluoro-3-(4-phenoxyphenyl)-1H-pyrazolo[4,3-c]pyridin-1-yl)methyl)pyrrolidin-1-yl)prop-2-en-1-one] | > 500 | < 100 | > 500 | < 100 |
| C=CC(=O)N1CCC[C@@H](c2nc(-c3ccc(Oc4ccccc4)cc3)c3cnccn23)C1 [Compound A28, (R)-1-(3-(1-(4-phenoxyphenyl)imidazo[1,5-a]pyrazin-3-yl)piperidin-1-yl)prop-2-en-1-one] | > 500 | < 100 | > 500 | < 100 |
| C=CC(=O)N1CCC[C@H]1c1nc(-c2ccc(Oc3ccccc3)cc2)c2cnccn12 [Compound A29, (S)-1-(2-(1-(4-phenoxyphenyl)imidazo[1,5-a]pyrazin-3-yl)pyrrolidin-1-yl)prop-2-en-1-one] | > 500 | < 100 | > 500 | 100 to 500 |
| C=CC(=O)N1CC[C@@H](c2nc(-c3ccc(Oc4ccccc4)cc3)c3cnccn23)C1 [Compound A30, (R)-1-(3-(1-(4-phenoxyphenyl)imidazo[1,5-a]pyrazin-3-yl)pyrrolidin-1-yl)prop-2-en-1-one] | > 500 | < 100 | > 500 | < 100 |
| CC#CC(=O)N1CCC[C@H]1c1nc(-c2ccc(Oc3ccccc3)cc2)c2cnccn12 [Compound A31, (S)-1-(2-(1-(4-phenoxyphenyl)imidazo[1,5-a]pyrazin-3-yl)pyrrolidin-1-yl)but-2-yn-1-one] | > 500 | > 500 | > 500 | > 500 |
| CC#CC(=O)N1CC[C@@H](c2nc(-c3ccc(Oc4ccccc4)cc3)c3cnccn23)C1 [Compound A32, (R)-1-(3-(1-(4-phenoxyphenyl)imidazo[1,5-a]pyrazin-3-yl)pyrrolidin-1-yl)but-2-yn-1-one] | > 500 | < 100 | > 500 | 100 to 500 |
| C=CC(=O)N1CCC[C@@H](n2nc(-c3ccc(Oc4ccccc4)cc3C#N)c3cncnc32)C1 [Compound A33, (R)-2-(1-(1-acryloylpiperidin-3-yl)-H-pyrazolo[3,4-d]pyrimidin-3-yl)-5-phenoxybenzonitrile] | > 500 | 100 to 500 | > 500 | > 500 |
| C=CC(=O)N1CCC(Cn2nc(-c3ccc(Oc4ccccc4)cc3)c3cncnc32)CC1 [Compound A34, 1-(4-((3-(4-phenoxyphenyl)-1H-pyrazolo[3,4-d]pyrimidin-1-yl)methyl)piperidin-1-yl)prop-2-en-1-one] | > 500 | < 100 | > 500 | > 500 |
| C=CC(=O)N1CC(Cn2nc(-c3ccc(Oc4ccccc4)cc3)c3cncnc32)C1 [Compound A35, 1-(3-((3-(4-phenoxyphenyl)-1H-pyrazolo[3,4-d]pyrimidin-1-yl)methyl)azetidin-1-yl)prop-2-en-1-one] | > 500 | < 100 | > 500 | 100 to 500 |
| C=CC(=O)N1CCC(n2nc(-c3ccc(Oc4ccccc4)cc3)c3cncnc32)CC1 [Compound A36, 1-(4-(3-(4-phenoxyphenyl)-1H-pyrazolo[3,4-d]pyrimidin-1-yl)piperidin-1-yl)prop-2-en-1-one] | > 500 | 100 to 500 | > 500 | 100 to 500 |
| C=CC(=O)N1CC2(CC(n3nc(-c4ccc(Oc5ccccc5)cc4)c4cncnc43)C2)C1 [Compound A37, 1-(6-(3-(4-phenoxyphenyl)-1H-pyrazolo[3,4-d]pyrimidin-1-yl)-2-azaspiro[3.3]heptan-2-yl)prop-2-en-1-one] | > 500 | < 100 | > 500 | 100 to 500 |
| C=CC(=O)Nc1ccccc1Cn1nc(-c2ccc(Oc3ccccc3)cc2)c2cncnc21 [Compound A38, N-(2-((3-(4-phenoxyphenyl)-1H-pyrazolo[3,4-d]pyrimidin-1-yl)methyl)phenyl)acrylamide] | > 500 | < 100 | > 500 | < 100 |
| C=CC(=O)N1CCC[C@@H](n2nc(-c3ccc(Oc4cccc(F)c4)cc3)c3cncnc32)C1 [Compound A39, (R)-1-(3-(3-(4-(3-fluorophenoxy)phenyl)-1H-pyrazolo[3,4-d]pyrimidin-1-yl)piperidin-1-yl)prop-2-en-1-one] | > 500 | < 100 | > 500 | < 100 |
